Experimental data reported in patent publication US9707233B2, “Heterocyclylamines as PI3K inhibitors” (Incyte Corporation, priority 2011, dated 2017).

Each molecule was assayed against PI3Kδ (p110δ/p85α) (Homo sapiens (Human), UniProt O00329) (assay: PI3Kδ scintillation proximity assay (Example A3)). Settings: 20 μM ATP, 20 μM PIP2, 4 nM PI3Kδ; read-out: PI3Kδ SPA IC50.
Assay type: biochemical
How it was run: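 Human PI3Kδ (p110δ/p85α, 4 nM) with 20 μM PIP2 and 20 μM ATP plus [γ-33P]ATP in 20 mM MOPS pH 6.7, 10 mM MgCl2, 5 mM DTT, 0.03% CHAPS, 0.5% DMSO, room temperature. Reaction stopped with EDTA/excess ATP; product captured on WGA SPA beads and counted. IC50 from percent control activity vs log inhibitor.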

PI3Kδ (p110δ/p85α), sequence (O00329 whole entry): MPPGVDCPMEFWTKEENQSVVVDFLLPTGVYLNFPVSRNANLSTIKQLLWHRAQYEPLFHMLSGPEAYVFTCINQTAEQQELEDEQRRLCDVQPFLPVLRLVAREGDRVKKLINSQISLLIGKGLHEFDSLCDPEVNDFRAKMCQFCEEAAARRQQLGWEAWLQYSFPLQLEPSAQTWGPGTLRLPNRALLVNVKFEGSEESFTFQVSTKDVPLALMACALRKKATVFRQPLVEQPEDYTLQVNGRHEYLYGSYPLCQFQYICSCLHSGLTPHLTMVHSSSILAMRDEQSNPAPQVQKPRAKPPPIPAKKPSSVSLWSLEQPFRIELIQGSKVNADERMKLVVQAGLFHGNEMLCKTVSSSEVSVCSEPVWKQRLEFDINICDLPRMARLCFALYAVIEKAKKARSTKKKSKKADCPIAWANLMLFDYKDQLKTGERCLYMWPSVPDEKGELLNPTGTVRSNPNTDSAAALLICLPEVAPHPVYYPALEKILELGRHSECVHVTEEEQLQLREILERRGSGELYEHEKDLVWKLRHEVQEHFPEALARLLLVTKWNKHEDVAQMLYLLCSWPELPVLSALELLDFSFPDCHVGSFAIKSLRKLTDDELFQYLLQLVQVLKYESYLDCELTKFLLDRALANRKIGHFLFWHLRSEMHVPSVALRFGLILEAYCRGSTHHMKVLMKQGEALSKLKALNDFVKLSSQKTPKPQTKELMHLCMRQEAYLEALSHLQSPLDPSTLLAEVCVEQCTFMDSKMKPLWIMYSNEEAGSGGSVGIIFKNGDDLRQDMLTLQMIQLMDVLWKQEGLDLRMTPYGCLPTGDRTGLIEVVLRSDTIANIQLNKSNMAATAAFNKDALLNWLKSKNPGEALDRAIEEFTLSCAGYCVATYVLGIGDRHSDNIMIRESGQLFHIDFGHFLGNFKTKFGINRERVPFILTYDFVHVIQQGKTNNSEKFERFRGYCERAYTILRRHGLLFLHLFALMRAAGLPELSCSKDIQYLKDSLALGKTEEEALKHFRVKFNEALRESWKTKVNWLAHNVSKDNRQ
PI3Kδ (p110δ/p85α), sequence (P27986 whole entry partner): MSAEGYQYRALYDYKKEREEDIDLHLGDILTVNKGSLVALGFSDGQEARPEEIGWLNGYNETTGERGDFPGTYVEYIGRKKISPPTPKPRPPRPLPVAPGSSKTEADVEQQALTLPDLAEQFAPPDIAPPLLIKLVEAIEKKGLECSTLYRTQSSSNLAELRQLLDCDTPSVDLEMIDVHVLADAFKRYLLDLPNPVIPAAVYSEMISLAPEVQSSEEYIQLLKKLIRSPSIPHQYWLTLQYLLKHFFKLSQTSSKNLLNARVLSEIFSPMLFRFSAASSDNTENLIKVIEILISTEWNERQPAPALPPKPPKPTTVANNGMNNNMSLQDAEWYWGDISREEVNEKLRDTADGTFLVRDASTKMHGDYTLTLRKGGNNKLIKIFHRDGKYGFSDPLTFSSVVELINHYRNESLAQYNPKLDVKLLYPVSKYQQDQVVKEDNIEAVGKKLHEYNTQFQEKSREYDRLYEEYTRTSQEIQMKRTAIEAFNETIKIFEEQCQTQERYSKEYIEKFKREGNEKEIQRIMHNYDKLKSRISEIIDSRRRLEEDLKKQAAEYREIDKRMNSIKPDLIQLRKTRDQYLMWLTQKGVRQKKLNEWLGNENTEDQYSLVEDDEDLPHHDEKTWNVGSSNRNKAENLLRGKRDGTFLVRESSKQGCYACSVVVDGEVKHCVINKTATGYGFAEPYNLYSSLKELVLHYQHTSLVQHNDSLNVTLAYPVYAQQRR

| IC50 | SMILES |
| --- | --- |
| ≤ 10 nM | COc1c(C(C)n2nc(C)c3c(N)ncnc32)cc(Cl)c(C#N)c1C1CN(S(=O)(=O)C2CC2)C1 (single isomer, unassigned) [Example 288, 4-[1-(4-Amino-3-methyl-1H-pyrazolo[3,4-d]pyrimidin-1-yl)ethyl]-6-chloro-2-[1-(cyclopropylsulfonyl)azetidin-3-yl]-3-methoxybenzonitrile] |
| ≤ 10 nM | CCOC(=O)N1CC(c2c(C#N)c(Cl)cc(C(C)n3nc(C)c4c(N)ncnc43)c2OC)C1 (single isomer, unassigned) [Example 290, Ethyl 3-{3-[1-(4-amino-3-methyl-1H-pyrazolo[3,4-d]pyrimidin-1-yl)ethyl]-5-chloro-6-cyano-2-methoxyphenyl}azetidine-1-carboxylate] |
| ≤ 10 nM | COc1c(C(C)n2nc(C)c3c(N)ncnc32)cc(Cl)c(C#N)c1C1CN(C(=O)OC(C)C)C1 (single isomer, unassigned) [Example 291, Isopropyl 3-{3-[1-(4-amino-3-methyl-1H-pyrazolo[3,4-d]pyrimidin-1-yl)ethyl]-5-chloro-6-cyano-2-methoxyphenyl}azetidine-1-carboxylate] |
| ≤ 10 nM | CCNC(=O)N1CC(c2c(C#N)c(Cl)cc(C(C)n3nc(C)c4c(N)ncnc43)c2OC)C1 (single isomer, unassigned) [Example 295, 3-{3-[1-(4-Amino-3-methyl-1H-pyrazolo[3,4-d]pyrimidin-1-yl)ethyl]-5-chloro-6-cyano-2-methoxyphenyl}-N-ethylazetidine-1-carboxamide] |
| ≤ 10 nM | COc1c(C(C)n2nc(C)c3c(N)ncnc32)cc(Cl)c(Cl)c1C1CN(C(C)C)C1 (single isomer, unassigned) [Example 299, 1-{1-[4,5-Dichloro-3-(1-isopropylazetidin-3-yl)-2-methoxyphenyl]ethyl}-3-methyl-1H-pyrazolo[3,4-d]pyrimidin-4-amine] |
| ≤ 10 nM | COc1c(C(C)n2nc(C)c3c(N)ncnc32)cc(Cl)c(Cl)c1C1CN(CCO)C1 (single isomer, unassigned) [Example 300, 2-(3-{3-[1-(4-Amino-3-methyl-1H-pyrazolo[3,4-d]pyrimidin-1-yl)ethyl]-5,6-dichloro-2-methoxyphenyl}azetidin-1-yl)ethano] |
| ≤ 10 nM | COc1c(C(C)n2nc(C)c3c(N)ncnc32)cc(Cl)c(Cl)c1C1CN(CC(C)(C)O)C1 (single isomer, unassigned) [Example 303, 1-(3-{3-[1-(4-Amino-3-methyl-1H-pyrazolo[3,4-d]pyrimidin-1-yl)ethyl]-5,6-dichloro-2-methoxyphenyl}azetidin-1-yl)-2-methylpropan-2-ol] |
| ≤ 10 nM | COc1c(C(C)n2nc(C)c3c(N)ncnc32)cc(Cl)c(Cl)c1C1CN(C2COC2)C1 (single isomer, unassigned) [Example 304, 1-{1-[4,5-Dichloro-2-methoxy-3-(1-oxetan-3-ylazetidin-3-yl)phenyl]ethyl}-3-methyl-1H-pyrazolo[3,4-d]pyrimidin-4-amine] |
| ≤ 10 nM | COc1c(C(C)n2nc(C)c3c(N)ncnc32)cc(Cl)c(Cl)c1C1CN(CC#N)C1 (single isomer, unassigned) [Example 305, (3-{3-[1-(4-Amino-3-methyl-1H-pyrazolo[3,4-d]pyrimidin-1-yl)ethyl]-5,6-dichloro-2-methoxyphenyl}azetidin-1-yl)acetonitrile] |
| ≤ 10 nM | COc1c(C(C)n2nc(C)c3c(N)ncnc32)cc(Cl)c(Cl)c1C1CN(C(C)=O)C1 (single isomer, unassigned) [Example 306, 1-{1-[3-(1-Acetylazetidin-3-yl)-4,5-dichloro-2-methoxyphenyl]ethyl}-3-methyl-1H-pyrazolo[3,4-d]pyrimidin-4-amine] |
| ≤ 10 nM | CCOc1c(C(C)n2nc(C)c3c(N)ncnc32)cc(C)c(C#N)c1C1CN(CC(C)(C)O)C1 (single isomer, unassigned) [Example 321, 4-[1-(4-amino-3-methyl-1H-pyrazolo[3,4-d]pyrimidin-1-yl)ethyl]-3-ethoxy-2-[1-(2-hydroxy-2-methylpropyl)azetidin-3-yl]-6-methylbenzonitrile] |
| ≤ 10 nM | CCOc1c(C(C)n2nc(C)c3c(N)ncnc32)cc(C)c(C#N)c1C1CN(C(=O)C(C)(C)O)C1 (single isomer, unassigned) [Example 322, 4-[1-(4-amino-3-methyl-1H-pyrazolo[3,4-d]pyrimidin-1-yl)ethyl]-3-ethoxy-2-[1-(2-hydroxy-2-methylpropanoyl)azetidin-3-yl]-6-methylbenzonitrile] |
| ≤ 10 nM | CCOc1c(C(C)n2nc(C)c3c(N)ncnc32)cc(C)c(C#N)c1C1CN(CCO)C1 (single isomer, unassigned) [Example 327, 4-[-1-(4-amino-3-methyl-1H-pyrazolo[3,4-d]pyrimidin-1-yl)ethyl]-3-ethoxy-2-[1-(2-hydroxyethyl)azetidin-3-yl]-6-methylbenzonitrile] |
| ≤ 10 nM | CCOc1c(C(C)n2nc(C)c3c(N)ncnc32)cc(Cl)c(C#N)c1-c1cncc(C#N)c1 (single isomer, unassigned) [Example 330, 5-{3-[1-(4-amino-3-methyl-1H-pyrazolo[3,4-d]pyrimidin-1-yl)ethyl]-5-chloro-6-cyano-2-ethoxyphenyl}nicotinonitrile] |
| ≤ 10 nM | CCOc1c(C(C)n2nc(C)c3c(N)ncnc32)cc(Cl)c(C#N)c1-c1cncc(C(=O)N(C)C)c1 (single isomer, unassigned) [Example 331, 5-{3-[1-(4-amino-3-methyl-1H-pyrazolo[3,4-d]pyrimidin-1-yl)ethyl]-5-chloro-6-cyano-2-ethoxyphenyl}-N,N-dimethylnicotinamide] |
| ≤ 10 nM | COc1c(C(C)n2nc(C)c3c(N)ncnc32)cc(Cl)c(C#N)c1-c1cncc(S(C)(=O)=O)c1 (single isomer, unassigned) [Example 332, 4-[1-(4-amino-3-methyl-1H-pyrazolo[3,4-d]pyrimidin-1-yl)ethyl]-6-chloro-3-methoxy-2-[5-(methylsulfonyl)pyridin-3-yl]benzonitrile] |
| ≤ 10 nM | CCOc1c(C(C)n2nc(C)c3c(N)ncnc32)cc(Cl)c(C#N)c1-c1ccnc(C(=O)N(C)C)c1 (single isomer, unassigned) [Example 334, 4-{3-[1-(4-amino-3-methyl-1H-pyrazolo[3,4-d]pyrimidin-1-yl)ethyl]-5-chloro-6-cyano-2-ethoxyphenyl}-N,N-dimethylpyridine-2-carboxamide] |
| ≤ 10 nM | CCOc1c(C(C)n2nc(C)c3c(N)ncnc32)cc(C)c(C#N)c1-c1cncc(S(C)(=O)=O)c1 (single isomer, unassigned) [Example 335, 4-[1-(4-amino-3-methyl-1H-pyrazolo[3,4-d]pyrimidin-1-yl)ethyl]-3-ethoxy-6-methyl-2-[5-(methylsulfonyl)pyridin-3-yl]benzonitrile] |
| ≤ 10 nM | CCOc1c(C(C)n2nc(C)c3c(N)ncnc32)cc(C)c(C#N)c1-c1ccnc(C(=O)N(C)C)c1 (single isomer, unassigned) [Example 340, 4-{3-[1-(4-amino-3-methyl-1H-pyrazolo[3,4-d]pyrimidin-1-yl)ethyl]-6-cyano-2-ethoxy-5-methylphenyl}-N,N-dimethylpyridine-2-carboxamide] |
| ≤ 10 nM | CCOc1c(C(C)n2nc(C)c3c(N)ncnc32)cc(Cl)c(C#N)c1C1CNC(=O)C1 (single isomer, unassigned) [Example 349, 4-[1-(4-amino-3-methyl-1H-pyrazolo[3,4-d]pyrimidin-1-yl)ethyl]-6-chloro-3-ethoxy-2-(5-oxopyrrolidin-3-yl)benzonitrile] |

| SMILES | IC50 |
| --- | --- |
| CCN1CC(c2c(Cl)c(Cl)cc(C(C)n3nc(C)c4c(N)ncnc43)c2OC)C1 (single isomer, unassigned) [Example 298, 1-{1-[4,5-Dichloro-3-(1-ethylazetidin-3-yl)-2-methoxyphenyl]ethyl}-3-methyl-1H-pyrazolo[3,4-d]pyrimidin-4-amine] | ≤ 10 nM |
| CCOc1c(C(C)n2nc(C)c3c(N)ncnc32)cc(Cl)c(C)c1C1CNC(=O)C1 (single isomer, unassigned) [Example 310, 4-{3-[1-(4-amino-3-methyl-1H-pyrazolo[3,4-d]pyrimidin-1-yl)ethyl]-5-chloro-2-ethoxy-6-methylphenyl}pyrrolidin-2-one] | ≤ 10 nM |
| CCOc1c(C(C)n2nc(C)c3c(N)ncnc32)cc(Cl)c(C)c1C1CNC(=O)C1 (single isomer, unassigned) [Example 311, 4-{3-[1-(4-amino-3-methyl-1H-pyrazolo[3,4-d]pyrimidin-1-yl)ethyl]-5-chloro-2-ethoxy-6-methylphenyl}pyrrolidin-2-one] | ≤ 10 nM |
| CCOc1c(C(C)n2nc(C)c3c(N)ncnc32)cc(Cl)c(F)c1C1CNC(=O)C1 (single isomer, unassigned) [Example 345, 4-{3-[1-(4-amino-3-methyl-1H-pyrazolo[3,4-d]pyrimidin-1-yl)ethyl]-5-chloro-2-ethoxy-6-fluorophenyl}pyrrolidin-2-one] | 50 to 200 nM |
| CCOc1c(C(C)n2nc(C)c3c(N)ncnc32)cc(Cl)c(F)c1C1CNC(=O)C1 (single isomer, unassigned) [Example 346, 4-{3-[1-(4-amino-3-methyl-1H-pyrazolo[3,4-d]pyrimidin-1-yl)ethyl]-5-chloro-2-ethoxy-6-fluorophenyl}pyrrolidin-2-one] | ≤ 10 nM |
| CCOc1c(C(C)n2nc(C)c3c(N)ncnc32)cc(Cl)c(F)c1C1CNC(=O)C1 (single isomer, unassigned) [Example 347, 4-{3-[1-(4-amino-3-methyl-1H-pyrazolo[3,4-d]pyrimidin-1-yl)ethyl]-5-chloro-2-ethoxy-6-fluorophenyl}pyrrolidin-2-one] | ≤ 10 nM |
| CCOc1c(C(C)n2nc(C)c3c(N)ncnc32)cc(Cl)c(F)c1C1CNC(=O)C1 (single isomer, unassigned) [Example 348, 4-{3-[1-(4-amino-3-methyl-1H-pyrazolo[3,4-d]pyrimidin-1-yl)ethyl]-5-chloro-2-ethoxy-6-fluorophenyl}pyrrolidin-2-one] | 50 to 200 nM |
